Laboratory results reported in PubChem BioAssay (NCI).
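Briefly, cells in 96-well plates were exposed to five compound concentrations for 48 h, and endpoints were estimated by linear interpolation. GI50: concentration for 50% inhibition of growth. TGI: concentration producing complete growth inhibition.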

How the values were obtained:
Assay in all cases: growth of human tumour cells (NCI), 48 h
T-47D breast = system: T-47D breast
BT-549 breast = system: BT-549 breast
UACC-257 melanoma = system: UACC-257 melanoma
HCT-116 colon = system: HCT-116 colon
OVCAR-4 ovarian = system: OVCAR-4 ovarian
SR leukemia = system: SR leukemia
U251 CNS = system: U251 CNS
EKVX NSCLC = system: EKVX NSCLC
SNB-19 CNS = system: SNB-19 CNS
HOP-92 NSCLC = system: HOP-92 NSCLC
SK-MEL-5 melanoma = system: SK-MEL-5 melanoma
SK-MEL-28 melanoma = system: SK-MEL-28 melanoma
HL-60(TB) leukemia = system: HL-60(TB) leukemia
MCF7 breast = system: MCF7 breast
ACHN renal = system: ACHN renal
DU-145 prostate = system: DU-145 prostate
PC-3 prostate = system: PC-3 prostate
A498 renal = system: A498 renal
A549 NSCLC = system: A549 NSCLC
SK-OV-3 ovarian = system: SK-OV-3 ovarian
MOLT-4 leukemia = system: MOLT-4 leukemia
NCI-H522 lung = system: NCI-H522 lung
IGROV1 ovarian = system: IGROV1 ovarian
NCI-H226 lung = system: NCI-H226 lung
OVCAR-5 ovarian = system: OVCAR-5 ovarian
SF-268 CNS = system: SF-268 CNS
SW-620 colon = system: SW-620 colon
SNB-75 CNS = system: SNB-75 CNS
OVCAR-8 ovarian = system: OVCAR-8 ovarian
HCT-15 colon = system: HCT-15 colon
TK-10 renal = system: TK-10 renal
M14 melanoma = system: M14 melanoma
RPMI-8226 leukemia = system: RPMI-8226 leukemia
SF-295 CNS = system: SF-295 CNS
SN12C renal = system: SN12C renal
786-0 renal = system: 786-0 renal
MDA-MB-435 = system: MDA-MB-435
OVCAR-3 ovarian = system: OVCAR-3 ovarian
NCI/ADR-RES ovarian = system: NCI/ADR-RES ovarian
SF-539 CNS = system: SF-539 CNS
HT29 colon = system: HT29 colon
HCC-2998 colon = system: HCC-2998 colon
COLO 205 colon = system: COLO 205 colon
HOP-62 NSCLC = system: HOP-62 NSCLC
HS 578T breast = system: HS 578T breast
CCRF-CEM leukemia = system: CCRF-CEM leukemia
RXF 393 renal = system: RXF 393 renal
KM12 colon = system: KM12 colon
UACC-62 melanoma = system: UACC-62 melanoma
LOX IMVI melanoma = system: LOX IMVI melanoma
UO-31 renal = system: UO-31 renal
CAKI-1 renal = system: CAKI-1 renal
NCI-H23 lung = system: NCI-H23 lung
NCI-H460 lung = system: NCI-H460 lung
MDA-MB-231 breast = system: MDA-MB-231 breast
K-562 leukemia = system: K-562 leukemia

## COc1ccc(Cn2cc3c(c2-c2ccc(OC)cc2)CCc2cnoc2-3)cc1
T-47D breast
  GI50: 533 nM
  TGI: > 100000 nM
BT-549 breast
  GI50: 760 nM
  TGI: > 100000 nM
UACC-257 melanoma
  GI50: 1570 nM
  TGI: > 100000 nM
HCT-116 colon
  GI50: 451 nM
  TGI: > 100000 nM
OVCAR-4 ovarian
  GI50: 930 nM
  TGI: > 100000 nM
SR leukemia
  GI50: 331 nM
  TGI: 1940 nM
U251 CNS
  GI50: 444 nM
  TGI: > 100000 nM
EKVX NSCLC
  GI50: 523 nM
  TGI: > 100000 nM
SNB-19 CNS
  GI50: 679 nM
  TGI: > 100000 nM
HOP-92 NSCLC
  GI50: 1120 nM
  TGI: > 100000 nM
SK-MEL-5 melanoma
  GI50: 343 nM
  TGI: 4710 nM
SK-MEL-28 melanoma
  GI50: 804 nM
  TGI: > 100000 nM
HL-60(TB) leukemia
  GI50: 282 nM
  TGI: 1170 nM
MCF7 breast
  GI50: 389 nM
  TGI: > 100000 nM
ACHN renal
  GI50: 892 nM
  TGI: > 100000 nM
DU-145 prostate
  GI50: 350 nM
  TGI: 2710 nM
PC-3 prostate
  GI50: 602 nM
  TGI: > 100000 nM
A498 renal
  GI50: 213 nM
  TGI: 749 nM
A549 NSCLC
  GI50: 582 nM
  TGI: > 100000 nM
SK-OV-3 ovarian
  GI50: 571 nM
  TGI: > 100000 nM
MOLT-4 leukemia
  GI50: 504 nM
  TGI: > 35000 nM
NCI-H522 lung
  GI50: 199 nM
  TGI: 572 nM
IGROV1 ovarian
  GI50: 775 nM
  TGI: > 100000 nM
NCI-H226 lung
  GI50: 1360 nM
  TGI: > 100000 nM
OVCAR-5 ovarian
  GI50: 2680 nM
  TGI: > 100000 nM
SF-268 CNS
  GI50: 686 nM
  TGI: > 100000 nM
SW-620 colon
  GI50: 353 nM
  TGI: > 100000 nM
SNB-75 CNS
  GI50: 216 nM
  TGI: 804 nM
OVCAR-8 ovarian
  GI50: 621 nM
  TGI: > 100000 nM
HCT-15 colon
  GI50: 506 nM
  TGI: > 100000 nM
TK-10 renal
  GI50: 616 nM
  TGI: > 100000 nM
M14 melanoma
  GI50: 404 nM
  TGI: > 33200 nM
RPMI-8226 leukemia
  GI50: 336 nM
SF-295 CNS
  GI50: 270 nM
  TGI: 960 nM
SN12C renal
  GI50: 795 nM
  TGI: > 100000 nM
786-0 renal
  GI50: 658 nM
  TGI: > 100000 nM
MDA-MB-435
  GI50: 181 nM
  TGI: 480 nM
OVCAR-3 ovarian
  GI50: 259 nM
  TGI: 620 nM
NCI/ADR-RES ovarian
  GI50: 270 nM
  TGI: 4080 nM
SF-539 CNS
  GI50: 307 nM
  TGI: 2130 nM
HT29 colon
  GI50: 309 nM
  TGI: 1240 nM
HCC-2998 colon
  GI50: 846 nM
  TGI: 5920 nM
COLO 205 colon
  GI50: 296 nM
  TGI: 815 nM
HOP-62 NSCLC
  GI50: 539 nM
  TGI: > 100000 nM
HS 578T breast
  GI50: 301 nM
  TGI: 1140 nM
CCRF-CEM leukemia
  GI50: 364 nM
  TGI: > 100000 nM
RXF 393 renal
  GI50: 322 nM
KM12 colon
  GI50: 376 nM
  TGI: 2350 nM
UACC-62 melanoma
  GI50: 547 nM
  TGI: > 100000 nM
LOX IMVI melanoma
  GI50: 706 nM
  TGI: > 100000 nM
UO-31 renal
  GI50: 797 nM
  TGI: > 100000 nM
CAKI-1 renal
  GI50: 309 nM
  TGI: > 100000 nM
NCI-H23 lung
  GI50: 519 nM
  TGI: > 100000 nM
NCI-H460 lung
  GI50: 347 nM
  TGI: 1960 nM
MDA-MB-231 breast
  GI50: 1410 nM
  TGI: > 53700 nM
K-562 leukemia
  GI50: 349 nM
  TGI: > 100000 nM
